Measurements published in patent US20190255086A1, “Compositions and Methods for Treating an Infection” (CMPD Licensing, LLC, priority 2015, published 2019).

Legend:
Aspergillus fumigatus = assay: Expected efficacy of anti-fungal agents against various fungi (Table 4)
Blastomyces dermatitidis = assay: as above
Candida species = assay: as above
Coccidioides immitis = details: expected efficacy
Cryptococcus neoformans = assay: Expected efficacy of anti-fungal agents against various fungi (Table 4)
Histoplasma duboisii = details: expected efficacy
Sporothrix schenckii = assay: Expected efficacy of anti-fungal agents against various fungi (Table 4)
[1] = tested on: Trichophyton mentagrophytes; assay: as above
Trichophyton rubrum = assay: as above
Aspergillus niger = assay: as above
Aspergillus terreus = assay: as above
Leishmania donovani = assay: as above

Measured: Efficacy of various antifungal agents

CCC(C)n1ncn(-c2ccc(N3CCN(c4ccc(OC[C@H]5CO[C@](Cn6cncn6)(c6ccc(Cl)cc6Cl)O5)cc4)CC3)cc2)c1=O (mixture of isomers) [Itraconazole]
yes: Aspergillus fumigatus | Blastomyces dermatitidis | Candida species | Coccidioides immitis | Cryptococcus neoformans | Histoplasma duboisii | Sporothrix schenckii | [1] | Trichophyton rubrum

C[C@@H]1[C@H](O)[C@@H](C)/C=C/C=C/C=C/C=C/C=C/C=C/C=C/[C@H](O[C@@H]2O[C@H](C)[C@@H](O)[C@H](N)[C@@H]2O)C[C@@H]2O[C@](O)(C[C@@H](O)C[C@@H](O)[C@H](O)CC[C@@H](O)C[C@@H](O)CC(=O)O[C@H]1C)C[C@H](O)[C@H]2C(=O)O [Amphotericin]
yes: Aspergillus fumigatus | Aspergillus niger | Aspergillus terreus | Blastomyces dermatitidis | Candida species | Coccidioides immitis | Cryptococcus neoformans | Leishmania donovani
